Key:
Mus musculus [1] = assay: Anticonvulsant activity against subcutaneous pentylenetetrazole-induced seizures in albino mouse assessed as duration of seizure time at 30 mg/kg, ip after 0.5 hr; format: functional; conditions: route intraperitoneal
Mus musculus [2] = assay: Anticonvulsant activity against maximal electroshock-induced seizures in albino mouse assessed as seizure at 100 mg/kg, ip after 0.5 hr; format: functional; conditions: route intraperitoneal
Mus musculus [3] = assay: Anticonvulsant activity in ip dosed albino mouse assessed as protection against maximal electroshock-induced seizures after 0.5 hr; format: functional
Mus musculus [4] = assay: Anticonvulsant activity in albino mouse assessed as protection against subcutaneous pentylenetetrazole-induced death measured as mortality at 300 mg/kg, ip after 0.5 hr; format: functional; conditions: sc, route intraperitoneal
Mus musculus [5] = assay: Anticonvulsant activity in albino mouse assessed as protection against subcutaneous pentylenetetrazole-induced death measured as mortality at 30 mg/kg, ip after 0.5 hr; format: functional; conditions: sc
Mus musculus [6] = assay: Anticonvulsant activity against maximal electroshock-induced seizure in albino mouse assessed as seizures at 300 mg/kg, ip after 0.5 hr; format: functional; conditions: route intraperitoneal
Mus musculus [7] = assay: Anticonvulsant activity against subcutaneous pentylenetetrazole-induced seizures in albino mouse assessed as onset of seizure time at 30 mg/kg, ip after 0.5 hr; format: functional; conditions: route intraperitoneal
Mus musculus [8] = assay: Anticonvulsant activity against subcutaneous pentylenetetrazole-induced seizures in albino mouse assessed as onset of seizure time at 300 mg/kg, ip after 0.5 hr; format: functional; conditions: route intraperitoneal
Mus musculus [9] = assay: Anticonvulsant activity in albino mouse assessed as protection against subcutaneous pentylenetetrazole-induced death measured as mortality at 100 mg/kg, ip after 0.5 hr; format: functional; conditions: sc, route intraperitoneal
Mus musculus [10] = assay: Anticonvulsant activity against subcutaneous pentylenetetrazole-induced seizures in albino mouse assessed as duration of seizure time at 100 mg/kg, ip after 0.5 hr; format: functional; conditions: route intraperitoneal
Mus musculus [11] = assay: Anticonvulsant activity against subcutaneous pentylenetetrazole-induced seizures in albino mouse assessed as seizure at 100 mg/kg, ip after 0.5 hr; format: functional
Mus musculus [12] = assay: Anticonvulsant activity against maximal electroshock-induced seizures in albino mouse assessed as seizure at 30 mg/kg, ip after 0.5 hr; format: functional; conditions: route intraperitoneal
Mus musculus [13] = assay: Anticonvulsant activity against subcutaneous pentylenetetrazole-induced seizures in albino mouse assessed as onset of seizure time at 100 mg/kg, ip after 0.5 hr; format: functional; conditions: route intraperitoneal
Mus musculus [14] = assay: Anticonvulsant activity against subcutaneous pentylenetetrazole-induced seizures in albino mouse assessed as duration of seizure time at 300 mg/kg, ip after 0.5 hr; format: functional; conditions: route intraperitoneal
Mus musculus [15] = assay: Protective index, ratio of TD50 for neurotoxicity in ip dosed albino mouse to ED50 for anticonvulsant activity in ip dosed albino mouse; format: functional
[16] = Neurotoxicity in ip dosed albino mouse measured after 30 mins by rotarod method; format: toxicity, organism-based; conditions: in vivo

| Compound | Time (Mus musculus [1]) [min] | Activity (Mus musculus [2]) [%] | ED50 (Mus musculus [3]) [mg/kg] | mortality at 300 mg/kg (Mus musculus [4]) [%] | mortality at 30 mg/kg (Mus musculus [5]; route intraperitoneal) [%] | Activity (Mus musculus [6]) [%] | Time (Mus musculus [7]) [min] | Time (Mus musculus [8]) [min] | mortality at 100 mg/kg (Mus musculus [9]) [%] | Time (Mus musculus [10]) [min] | Activity (Mus musculus [11]; route intraperitoneal) [%] | Activity (Mus musculus [12]) [%] | Time (Mus musculus [13]) [min] | Time (Mus musculus [14]) [min] | Ratio TD50/ED50 (Mus musculus [15]) | TD50 at 0.5 h [16] [mg/kg] | mortality at 30 mg/kg (Mus musculus [5]) [%] | Activity (Mus musculus [11]; ROUTE) [%] |
| --- | --- | --- | --- | --- | --- | --- | --- | --- | --- | --- | --- | --- | --- | --- | --- | --- | --- | --- |
| COc1cccc(N2C(=O)c3ccccc3C2=O)c1 | 7.25 | 100 | > 300 | 25 | 100 | 75 | 3 | 10.25 | 75 | 18.75 | 100 | 100 | 7.25 | 22.25 | – | – | – | – |
| O=C1c2ccccc2C(=O)N1c1ccc(Cl)cc1 | 10.5 | 25 | 55 | 75 | 100 | 25 | 3 | 8.25 | 75 | 12.75 | 100 | 75 | 3.25 | 19.25 | >5.54 | > 300 | – | – |
| O=C1c2ccccc2C(=O)N1c1cccc(Cl)c1 | 11.25 | 100 | 190 | 25 | 100 | 25 | 3.5 | 4.75 | 75 | 7 | 100 | 100 | 3.75 | 9 | 1.57 | 300 | – | – |
| COc1ccc(N2C(=O)c3ccccc3C2=O)cc1 | 11.75 | 25 | 15.1 | 0 | 100 | 0 | 3 | 13.5 | 100 | 22.25 | 100 | 25 | 5.25 | 23.75 | 5.91 | 89.3 | – | – |
| O=C1c2ccccc2C(=O)N1c1ccccc1Cl | 8.25 | 75 | 168 | 100 | 100 | 25 | 1.5 | 9.5 | 75 | 14.25 | 100 | 100 | 6.5 | 24.5 | – | – | – | – |
| O=C1c2ccccc2C(=O)N1c1ccccc1F | 5.5 | 75 | > 300 | 75 | 100 | 0 | 2 | 4.75 | 100 | 9 | 100 | 100 | 5 | 12 | <0.77 | 233 | – | – |
| O=C1c2ccccc2C(=O)N1c1cccc(F)c1 | 10.5 | 0 | 39.7 | 75 | 100 | 25 | 5 | 4.75 | 100 | 11 | 100 | 100 | 4 | 14 | 0.79 | 31.7 | – | – |
| O=C1c2ccccc2C(=O)N1c1ccc(F)cc1 | 13.25 | 100 | > 300 | 0 | 25 | 75 | 3 | 15.25 | 25 | 23.75 | 100 | 100 | 8.5 | 23.5 | <0.6 | 182 | – | – |
| O=C1c2ccccc2C(=O)N1c1cccc([N+](=O)[O-])c1 | 6 | 75 | 174 | 75 | 100 | 25 | 3.5 | 10.5 | 100 | 16.5 | 100 | 100 | 4.5 | 18.25 | 0.42 | 74.2 | – | – |
| O=C1c2ccccc2C(=O)N1c1ccc([N+](=O)[O-])cc1 | 5.75 | 25 | 62.3 | 75 | 75 | 25 | 3.5 | 6.25 | 75 | 11.75 | 100 | 100 | 4 | 15.5 | 2.81 | 176 | – | – |
| COc1ccccc1N1C(=O)c2ccccc2C1=O | 9.75 | 100 | 195 | 75 | 100 | 25 | 2.75 | 7.25 | 100 | 9.75 | 100 | 100 | 5.75 | 13.5 | 1.14 | 222 | – | – |
| O=C1c2ccccc2C(=O)N1c1ccccc1[N+](=O)[O-] | 7 | 25 | 53.5 | 75 | 100 | 0 | 2 | 8.75 | 0 | 22.5 | 100 | 75 | 7.5 | 18 | >5.6 | > 300 | – | – |
| CN1C(=O)CN=C(c2ccccc2)c2cc(Cl)ccc21 [DIAZEPAM] | – | – | 1.8 | – | – | – | – | – | – | – | – | – | – | – | – | – | 0 | 0 |
| O=C1c2ccccc2C(=O)N1c1ccccc1 [N-PHENYL-PHTHALIMIDE] | 3.75 | 25 | 66.2 | 25 | 100 | 0 | 3.25 | 6 | 100 | 11 | 100 | 100 | 4.5 | 15.75 | >4.53 | > 300 | – | – |

Source: ChEMBL document CHEMBL2429773, “Synthesis and antiseizure evaluation of isoindoline-1,3-dione derivatives in mice” (Med Chem Res, 2013)
